Measured values reported in US20020010158A1, “Cardioprotective phosphonates and malonates” (priority 2000, published 2002).

Experiments:
Assay type in all cases: in vivo, rat
[1] = tested on: coronary artery ligated rats (cardiac hypertrophy); experiment: Cardiac hypertrophy after coronary artery ligation; conditions: rats 21 days after coronary ligation, 10 mg/kg daily by gastric tube
Experimental: (§1) Myocardial infarction was produced in male Sprague-Dawley rats (300-400 g) by occlusion of the left coronary artery. The rats were housed in clear cages in a temperature (19-22° C.) and humidity (50-55% RH) controlled room on a 12 hour light-dark cycle. Food and water were supplied ad libitum. Rats were anaesthized with 1-5% isoflurane in 100% O2 (2 L/minute flow rate). The skin was incised along the left sternal border and the 4th rib was cut proximal to the sternum and a retractor was inserted. The pericardial sac was opened and the heart externalized. The left anterior descending coronary artery was ligated approximately 2 mm from its origin on the aorta using a 6-0 silk suture. The heart was then repositioned in the chest and the incision closed via purse-string sutures. Sham-operated rats underwent identical treatment except that the artery was not ligated. Mortality due to surgery was less than 1%. All animals were allowed to recover, receiving food and water ad libitum for 21 days. Hemodynamic and histological assessments were made.
(§2) Rats were divided at random into five groups: sham operated, coronary artery ligated (untreated), coronary artery ligated (pyridoxal-5′-phosphate (P5P) treatment), coronary artery ligated (compound VII treated) and coronary artery ligated (compound XI treated). Treatment with P5P, compound VII and compound XI began 1 hour after coronary occlusion (or sham operation), and continued for 21 days. P5P, compound VII or compound XI (10 mg/kg) were administered daily (9 AM) by gastric tube. This dosage was chosen based on previous experience with P5P.
Hypertrophy is a physiological condition of enlargement (increased mass) due to increased stress. Cardiac hypertrophy is assessed by calculating the heart to body mass ratio.

[2] = tested on: coronary artery ligated rats (myocardial infarction); experiment: Coronary artery ligation, mortality; conditions: male Sprague-Dawley rats, 10 mg/kg daily by gastric tube from 1 hour after occlusion
Experimental: as §1, with “made. […]” for “made.”
as §2
Mortality in all groups occurred only within the first 24 h after coronary ligation. While in the untreated group 50% of the rats died, the mortality rate dropped to 17-25% in the treated groups (Table I).

[3] = tested on: coronary artery ligated rats (left ventricle hemodynamics); experiment: Hemodynamic changes after coronary artery ligation; conditions: rats 21 days after coronary ligation; 10 mg/kg daily by gastric tube; mean±SD
Experimental: as §1, with “Sham-operated rats underwent identical treatment except that the artery was not ligated. Mortality due to surgery was less than 1%. All animals were allowed to recover, receiving food and water ad libitum for 21 days. Hemodynamic and histological assessments were made.” left out
The animals prepared as described in Example 29 were anaesthetized with an injected cocktail of ketamine hydrochloirde (60 mg/kg) and xylazine (10 mg/kg). […] The catheter was secured with a silk ligature around the artery, and various hemodynamic parameters including left ventricular systolic pressure (LVSP), left ventricular end diastolic pressure (LVEDP), rate of contraction (+dP/dt), and rate of relaxation (−dP/dt), were recorded and calculated with Acknowledge 3.1 software (Biopac Systems Inc.). The animals were allowed 5-10 minutes to stabilize, after which parameters were measured as averages over three readings.

Compound	Cardiac Hypertophy, Heart Weight/Body Weight [1]	Mortality (%) [2]	Total dead Rats [2]	Dead Rats 12 hr [2]	Dead Rats 24 hr [2]	Dead Rats 36 hr [2]	Dead Rats 48 hr [2]	Dead Rats 3 days [2]	LVSP (left ventricular systolic pressure) [3]
Cc1ncc(C(O)P(=O)(O)O)c(CO)c1O (stereo not drawn) [MC-5723, (3-hydroxy-4-hydroxymethyl-2-methyl-5-pyridyl)hydroxymethyl phosphonic Acid]	0.0031 ± 0.0004	–	–	–	–	–	–	–	–
Cc1ncc(C(O)P(=O)(O)O)c(CO)c1O (stereo not drawn) [compound VII, (3-hydroxy-4-hydroxymethyl-2-methyl-5-pyridyl)hydroxymethyl phosphonic Acid]	significant decrease in cardiac hypertrophy	21%	3	2	1	0	0	0	–
Cc1ncc(C(F)P(=O)(O)O)c(CO)c1O (stereo not drawn) [compound XI, (3-hydroxy-4-hydroxymethyl-2-methyl-5-pyridyl)fluoromethyl phosphonic Acid]	significant decrease in cardiac hypertrophy	25%	3	3	0	0	0	0	115.0 ± 12.1
Cc1ncc(COP(=O)(O)O)c(C=O)c1O [P5P, pyridoxal-5′-phosphate, reference compound]	–	17%	2	1	1	0	0	0	120.0 ± 10.6
Cc1ncc(C(F)P(=O)(O)O)c(CO)c1O (stereo not drawn) [MC-5422, (3-hydroxy-4-hydroxymethyl-2-methyl-5-pyridyl)fluoromethyl phosphonic Acid]	0.0032 ± 0.0002	–	–	–	–	–	–	–	–
